{
  "source": "patent US20260294906A1",
  "about": "“TREATING PSORIASIS USING A SMALL MOLECULE INHIBITOR OF TUMOR NECROSIS FACTOR ALPHA” (SANOFI, priority 2023, published 2026)",
  "assay_type_in_all_cases": "in vivo, human",
  "key": {"IL-22": {"tested_on": "IL-22", "assay": "Serum levels of biomarker IL-22 (single-molecule array ELISA)", "protocol": "(§1) The primary objective of the study was to assess the safety, tolerability, and clinical efficacy of Compound 1 at 200 mg BID via oral administration. Also evaluated was the clinical effect of Compound 1 as compared to placebo on the percent change in PASI and TLS scores from baseline to week 2 and week 4. The percent change in PASI score from baseline to week 4 was determined. TLS score was also assessed over the same time period. Also assessed was the effect of Compound 1 on biomarkers of psoriasis. Blood samples collected at predetermined time points were processed to quantify serum levels of biomarkers, including interleukin (IL)-17A, IL-17F, and IL-22 by high sensitivity methods. IL-17A, IL-17F and IL-22 are the main cytokines released by Th17 cells. Plasma levels of Compound 1 were measured to assess pharmacokinetics in the study population.\n(§2) Two study interventions were used, Compound 1 and placebo. The Compound 1 intervention comprised 4× tablets of Compound 1 50 mg twice daily, i.e. 200 mg BID, for 4 weeks. The placebo intervention was 4× tablets of placebo twice daily for 4 weeks. Tablets were administered orally.\n(§3) Blood samples were processed for analysis of IL-17A, IL-17F and IL-22 in serum samples by high sensitivity methods. Samples were collected according to the schedule of activity described above.\n(§4) As indicated above, peripheral blood samples collected at predetermined time points were processed to quantify serum levels of biomarkers of psoriasis including IL-17A, IL-17F, and IL-22. Levels of IL-17A and IL-17F were quantified using a single molecule counting sandwich immunoassay (SMCxPro™, Millipore—see also Hwang et al., Methods (2019) 158:69-76). Levels of IL-22 were quantified using a single-molecule array ELISA (SIMOA™, Myriad RBM—see also Rissin et al., Anal Chem (2011) 83(6):2279-2285). Statistical analysis was based on geometric mean ratio to baseline; a two-sample t-test at significance alpha level of 5% was used for calculation of the p-values."}, "[1]": {"tested_on": "patients with mild to moderate psoriasis", "assay": "Clinical response by Target Lesion Severity (TLS) score, phase 1 placebo-controlled study", "conditions": "for Mean (±SEM) % improvement from baseline in TLS score / ΔLSm (±SE) (Compound 1 minus placebo) in % improvement from baseline in TLS score: 200 mg BID; for LSm (±SE) % improvement from baseline in TLS score: 200 mg BID oral, fed, average of 2 lesions; for LSm (±SE) % improvement from baseline in TLS score / ΔLSm (±SE) (Compound 1 minus placebo) in % improvement from baseline in TLS score: MMRM", "protocol": "A double-blind, randomized, placebo-controlled phase 1 study was carried out in participants with mild to moderate psoriasis. Study participants were randomized to 200 mg twice a day (BID) of Compound 1 or placebo in 2:1 ratio (approximately 24 in the treatment group and 12 in the placebo group). The study comprised an up to 4-week screening period, and a 4-week treatment period with Compound 1 or placebo. An end-of-study visit was carried out 10±3 days after the last investigational medicinal product (IMP) administration.\nas §1, §2\nThe interventions were used in two arms of the study. Arm 1 was the experimental arm and it involved participants receiving 200 mg of Compound BID for 4 weeks under fed conditions. Arm 2 was the placebo arm and it involved participants receiving the matching placebo tablets for 4 weeks under fed conditions.\nTLS score, which is a validated tool for psoriasis severity assessment, was used to evaluate severity and to assess clinical efficacy. It consists of a sum score of 3 clinical severity parameters (scaling, erythema, plaque elevation/induration; each graded on a 5-point severity scale; 0=clear, 1=slight, 2=mild, 3=moderate, and 4=severe) with a sum score ranging between 0 and 12 points (see, e.g., Czamowicki et al., J Am Acad Dermatol. (2014) 71(5):954-959.e1). The following assessment was used, in which TLS score was calculated as the sum of A+B+C (adapted from Fredriksson et al., Dermatologica (1978) 157(4):238-244):\nThe TLS score was assessed at baseline, 2 weeks and 4 weeks. Table 2 below presents the Least Square means (LSm)±Standard Error (SE) for each treatment and the Least Squares means difference (ΔLSm; Compound 1 minus placebo)±Standard Error (SE) with 90% confidence interval (CI) in percentage improvement from baseline in the TLS score (calculated as the average of the TLS score values collected from 2 lesions) at week 2 and week 4.\nThe results in Table 2 were obtained using the Mixed Model for Repeated Measures (MMRM).\nTable 3 below presents the mean (±SEM) percentage improvement from baseline in the TLS score (calculated as the average of the TLS score values collected from 2 lesions) at week 2 and week 4 in the patient population with PASI<10 (mild) or PASI≥10 (moderate) at baseline.\nThe results in Table 3 come from standard descriptive analysis, ^(1)N=3, ^(2)N=15"}, "IL-17F": {"tested_on": "IL-17F", "assay": "Serum levels of biomarker IL-17F (single molecule counting sandwich immunoassay)", "protocol": "as §1, §2, §3, §4"}},
  "note": "Where “and” joins values, the source holds several entries; their conditions need not be identical. Identical values can stand only once.",
  "data": [
    {"smiles": "CN1C(=O)c2cccc(OC(F)F)c2[C@H]2C[C@@H]1c1nc3ccc(-c4cnc(C5(N)CCC5)nc4)cc3n12", "note": "[Compound 1, (7R,14R)-11-[2-(1-aminocyclobutyl)pyrimidin-5-yl]-1-(difluoromethoxy)-6-methyl-6,7-dihydro-7,14-methanobenzimidazo[1,2-b][2,5]benzodiazocin-5(14H)-one]", "values": [
      {"measurement": "Serum level of IL-22 (in words)", "setting": "IL-22; after treatment for 4 weeks", "value": "substantially decreased"},
      {"measurement": "Serum level of IL-22, geometric mean (geometric SE)", "setting": "IL-22; baseline (before treatment)", "value": "4.13 (1.19) pg/mL"},
      {"measurement": "Serum level of IL-22, geometric mean (geometric SE)", "setting": "IL-22; week 2, 200 mg BID", "value": "2.86 (1.18) pg/mL"},
      {"measurement": "Serum level of IL-22, geometric mean (geometric SE)", "setting": "IL-22; week 4, 200 mg BID", "value": "2.49 (1.15) pg/mL"},
      {"measurement": "Mean (±SEM) % improvement from baseline in TLS score", "setting": "[1]; PASI < 10 (mild) population, week 2, N = 16, SEM 3.61", "value": 20.9, "unit": "%"},
      {"measurement": "Mean (±SEM) % improvement from baseline in TLS score", "setting": "[1]; PASI < 10 (mild) population, week 4, N = 15, SEM 6.32", "value": 37.0, "unit": "%"},
      {"measurement": "Mean (±SEM) % improvement from baseline in TLS score", "setting": "[1]; PASI ≥ 10 (moderate) population, week 2, N = 9", "value": "10.9% and 10.9 (6.20) %"},
      {"measurement": "Mean (±SEM) % improvement from baseline in TLS score", "setting": "[1]; PASI ≥ 10 (moderate) population, week 4, N = 9", "value": "39.7% and 39.7 (4.03) %"},
      {"measurement": "LSm (±SE) % improvement from baseline in TLS score", "setting": "[1]; week 2, vs placebo 6.29%, p=0.032", "value": "17.06% and 17.06 (3.13) %"},
      {"measurement": "ΔLSm (±SE) (Compound 1 minus placebo) in % improvement from baseline in TLS score", "setting": "[1]; week 2, 90% CI 1.29 to 20.26", "value": "10.77% and 10.77 (5.61) %"},
      {"measurement": "LSm (±SE) % improvement from baseline in TLS score", "setting": "[1]; week 4, vs placebo 20.44%, p=0.012", "value": "38.18% and 38.18 (4.33) %"},
      {"measurement": "ΔLSm (±SE) (Compound 1 minus placebo) in % improvement from baseline in TLS score", "setting": "[1]; week 4, 90% CI 4.98 to 30.49", "value": "17.7% and 17.74% and 17.74 (7.54) %"},
      {"measurement": "mean reduction in TLS score from baseline", "setting": "[1]; week 4, FIG. 1, placebo around 1.25 points", "value": "around 2.5 points"},
      {"measurement": "Serum level of IL-17F (in words)", "setting": "IL-17F; after treatment for 4 weeks", "value": "substantially decreased"},
      {"measurement": "Serum level of IL-17F, geometric mean (geometric SE)", "setting": "IL-17F; baseline (before treatment)", "value": "2.63 (1.19) pg/mL"},
      {"measurement": "Serum level of IL-17F, geometric mean (geometric SE)", "setting": "IL-17F; week 2, 200 mg BID", "value": "1.65 (1.21) pg/mL"},
      {"measurement": "Serum level of IL-17F, geometric mean (geometric SE)", "setting": "IL-17F; week 4, 200 mg BID", "value": "1.35 (1.21) pg/mL"}
    ]}
  ]
}
